Several values for one entry are separate records, joined by “and”; a condition that tells them apart may be missing. Equal entries are not always repeated. Where two headings read alike, the source gives them in different places.
What was measured:
DAT (D206C) = target: T1, DAT (D206C) (Homo sapiens, UniProt Q01959, D206C); assay: Zinc inhibition of [3H]MPP+ uptake in HEK293 cells transiently expressing DAT-D206C; type: cell-based
T1 construct: expressed in transfected cells; host or cells: HEK293 (transient, calcium phosphate)
Description: (§1) Wild-type human DAT was generously donated by Marc G. Caron; DAT H193K was a generous gift from Ulrik Gether. Wild-type and mutant DAT were YFP tagged at their N-terminus as described in Egana et al.. Mutagenesis was performed using the Quickchange Lightning Kit by Agilent Technologies. Primers were designed using the “quickchange primer design tool” by Agilent. Primers used were: D206K: (5′-3′): […]; D206C: (5′-3′): […].
(§2) HEK293 cells were cultured in Dulbecco's modified Eagle's medium (DMEM) with high glucose (4.5 g/liter) and L-glutamine (584 mg/liter), supplemented with 10% fetal calf serum (FCS), 100 units/ml penicillin and 100 µg/ml streptomycin. The cells were maintained at 37°C in a humidified atmosphere of 5% CO2/95% air on standard plastic culture ware. The cells were transiently transfected with 2–10 µg of plasmid DNA as required, using the calcium phosphate precipitation method.
(§3) Cells were seeded at 0.5×10^5 cells/ml into poly-D-lysine coated 48 well plates twenty-four hours after calcium phosphate transfection with either wild-type or mutant DAT. Uptakes were performed as described previously. In brief, the cell medium was aspirated and the cells were washed once with Krebs-HEPES buffer at room temperature. The washed cells were pre-incubated with Krebs-HEPES buffer in the presence of 0–10 mM ZnCl2 for 5 min at room temperature. In the first step of the assay, this buffer was replaced with Krebs-Hepes buffer containing the appropriate ZnCl2 concentration and 0.02 µM [^3H]MPP^+. After three minutes substrate uptake was stopped by exchange of the substrate containing buffer with ice-cold Krebs-Hepes buffer. […] Non-specific uptake was determined in the presence of 10 µM mazindol.
(§4) Uptake data are given by mean values ± S.E, obtained from n = 6–8 experiments. Total uptake data were corrected for non-specific uptake and expressed as a percentage of 0 mM ZnCl2 for each experiment. IC50 values were calculated for each mutant by performing non-linear regression analysis using PRISM version 4.0 (GraphPad Software, Inc., San Diego, CA).

DAT (D206A) = target: T2, DAT (D206A) (Homo sapiens, UniProt Q01959, D206A); assay: Zinc inhibition of [3H]MPP+ uptake in HEK293 cells transiently expressing DAT-D206A; type: cell-based; details: [3H]MPP+ uptake inhibition, mean ± S.E.
T2 construct: expressed in transfected cells; host or cells: HEK293 (transient, calcium phosphate)
Description: as §1
as §2, with “The cells were transiently transfected with 2–10 µg of plasmid DNA as required, using the calcium phosphate precipitation method.” left out
(§5) Cells were seeded at 0.5×10^5 cells/ml into poly-D-lysine coated 48 well plates twenty-four hours after calcium phosphate transfection with either wild-type or mutant DAT. […] Non-specific uptake was determined in the presence of 10 µM mazindol.
as §4

DAT (wild-type) = target: T3, DAT (wild-type) (Homo sapiens, UniProt Q01959); assay: Zinc inhibition of [3H]MPP+ uptake in HEK293 cells transiently expressing wild-type DAT; type: cell-based; details: for IC50: [3H]MPP+ uptake inhibition, HEK293 cells, bi-phasic fit, mean ± S.E.
T3 construct: expressed in transfected cells; host or cells: HEK293 (transient, calcium phosphate)
Description: as §2
Cells were seeded at 0.5×10^5 cells/ml into poly-D-lysine coated 48 well plates twenty-four hours after calcium phosphate transfection with either wild-type or mutant DAT. Uptakes were performed as described previously. In brief, the cell medium was aspirated and the cells were washed once with Krebs-HEPES buffer at room temperature. The washed cells were pre-incubated with Krebs-HEPES buffer in the presence of 0–10 mM ZnCl2 for 5 min at room temperature. In the first step of the assay, this buffer was replaced with Krebs-Hepes buffer containing the appropriate ZnCl2 concentration and 0.02 µM [^3H]MPP^+. After three minutes substrate uptake was stopped by exchange of the substrate containing buffer with ice-cold Krebs-Hepes buffer. The cells were lysed in 1% SDS and transferred to scintillation vials. Scintillation cocktail was added and the vials were assayed for [^3H] content by liquid scintillation counting. Non-specific uptake was determined in the presence of 10 µM mazindol.
as §4

DAT (D206K) = target: T4, DAT (D206K) (Homo sapiens, UniProt Q01959, D206K); assay: Zinc inhibition of [3H]MPP+ uptake in HEK293 cells transiently expressing DAT-D206K; type: cell-based; details: for IC50: [3H]MPP+ uptake inhibition, HEK293 cells, DAT D206K, mean ± S.E.
T4 construct: expressed in transfected cells; host or cells: HEK293 (transient, calcium phosphate)
Description: as §1, §2, §3, §4

DAT (D206E) = target: T5, DAT (D206E) (Homo sapiens, UniProt Q01959, D206E); assay: Zinc inhibition of [3H]MPP+ uptake in HEK293 cells transiently expressing DAT-D206E; type: cell-based; details: [3H]MPP+ uptake inhibition, mean ± S.E.
T5 construct: expressed in transfected cells; host or cells: HEK293 (transient, calcium phosphate)
Description: as §1
as §2, with “The cells were transiently transfected with 2–10 µg of plasmid DNA as required, using the calcium phosphate precipitation method.” left out
as §5, §4

DAT = system: DAT; parameters: method as in PMID 9687495, PMID 8423763; details: synaptosomes and heterologous expression systems; cited from earlier work
DAT (H193K) = target: T6, DAT (H193K) (Homo sapiens, UniProt Q01959, H193K); assay: Zinc inhibition of [3H]MPP+ uptake in HEK293 cells transiently expressing DAT-H193K; type: cell-based; details: [3H]MPP+ uptake inhibition, homogeneous (mono-phasic) inhibition curve, mean ± S.E., read-out: Low-affinity site: IC50 (Zn^2+)
T6 construct: expressed in transfected cells; host or cells: HEK293 (transient, calcium phosphate)
Description: as §1
as §2, with “The cells were transiently transfected with 2–10 µg of plasmid DNA as required, using the calcium phosphate precipitation method.” left out
as §5, §4

[1] = read-out: High-affinity site: IC50 (Zn^2+)
[2] = read-out: Low-affinity site: IC50 (Zn^2+)

T1 sequence (Q01959 whole entry D206C): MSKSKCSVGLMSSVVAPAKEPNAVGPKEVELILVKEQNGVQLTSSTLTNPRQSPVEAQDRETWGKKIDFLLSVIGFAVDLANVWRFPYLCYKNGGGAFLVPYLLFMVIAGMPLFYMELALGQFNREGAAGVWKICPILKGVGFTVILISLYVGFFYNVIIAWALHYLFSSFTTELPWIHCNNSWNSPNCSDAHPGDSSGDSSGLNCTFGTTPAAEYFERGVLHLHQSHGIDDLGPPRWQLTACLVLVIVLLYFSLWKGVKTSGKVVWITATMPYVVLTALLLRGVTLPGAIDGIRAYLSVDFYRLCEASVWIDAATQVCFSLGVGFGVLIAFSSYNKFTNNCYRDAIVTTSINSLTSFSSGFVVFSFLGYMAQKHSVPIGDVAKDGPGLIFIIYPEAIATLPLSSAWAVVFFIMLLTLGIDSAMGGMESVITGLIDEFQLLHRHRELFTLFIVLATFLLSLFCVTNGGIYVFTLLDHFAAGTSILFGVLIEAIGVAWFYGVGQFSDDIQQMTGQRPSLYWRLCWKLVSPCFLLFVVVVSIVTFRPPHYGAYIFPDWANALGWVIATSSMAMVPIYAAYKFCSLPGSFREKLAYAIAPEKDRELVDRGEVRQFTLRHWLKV
T4 sequence (Q01959 whole entry D206K): as the sequence (Q01959 whole entry D206C) above, with C206K counted along it
T3 sequence (Q01959 whole entry): as the sequence (Q01959 whole entry D206C) above, with C206D counted along it
T2 sequence (Q01959 whole entry D206A): as the sequence (Q01959 whole entry D206C) above, with C206A counted along it
T5 sequence (Q01959 whole entry D206E): as the sequence (Q01959 whole entry D206C) above, with C206E counted along it
T6 sequence (Q01959 whole entry H193K): as the sequence (Q01959 whole entry D206C) above, with H193K, C206D counted along it

Structure (SMILES): [Zn+2] [zinc]
- Inhibition of transport upon saturation of the high affinity site (DAT (D206C); DAT-D206C, [3H]MPP+ uptake, HEK293 cells): almost complete inhibition of transport
- Occupancy of the high affinity site predicted (DAT (D206C); DAT-D206C, at 250 µM zinc): 99%
- IC50 (DAT (D206C); [3H]MPP+ uptake inhibition, HEK293 cells, DAT D206C, mean ± S.E., read-out: High-affinity site: IC50 (Zn^2+)): 6.81 ± 1.4 µM
- IC50 (DAT (D206A); [1]): 0.79 ± 0.1 µM
- IC50 (DAT (D206A); [2]): 219 ± 14 µM
- IC50 (DAT (wild-type); [1]): 1 µM and 0.91 µM
- IC50 (DAT (wild-type); [2]): 798 ± 84 µM
- Reduction of the transport rate of DAT upon zinc binding (DAT (wild-type); zinc bound to high-affinity site): ~50%
- Reduction of inhibitory potency of zinc on the high-affinity component versus wild-type (DAT (D206K); DAT-D206K versus wild-type DAT): approximately three fold
- IC50 (DAT (D206K); [1]): 2.54 ± 0.8 µM
- IC50 (DAT (D206K); [2]): 682 ± 100 µM
- IC50 (DAT (D206E); [1]): 1.22 ± 0.3 µM
- IC50 (DAT (D206E); [2]): 857 ± 76 µM
- IC50 of inhibition of dopamine re-uptake (DAT): low µM range
- IC50 (DAT (H193K)): 102 ± 8 µM
